The source of these data is patent US11723540B2, “Device and method for in vivo photoacoustic diagnosis and photothermal purging of infected blood” (priority 2012, dated 2023).

The subject of data set [1] is B16F10 cultured mouse melanoma cells. In kind it is cell-based. The text has this:
B16F10 cultured mouse melanoma cells (ATCC, Rockville, Md.) were used in this experiment. The cells were maintained using standard procedures (Ara et al. 1990, Weight et al. 2006, Zharov et al. 2006), including serial passage in phenol-free RPMI 1640 medium (Invitrogen, Carlsbad, Calif.) supplemented with 10% fetal bovine serum (FBS, Invitrogen). For comparison to the detection of unlabeled melanoma cells, the endogenous cell absorption was increased by staining with ICG (Akorn Inc., USA), a strongly absorbent dye in the NIR range, for 30 min at 37° C. and in the presence of 5% CO2.

The conditions of data set [2]: mouse, in vivo. From the text:
In this experiment, a prototype PAFC system was used to detect Lymphazurin circulating in the blood vessels of a mouse ear.
The prototype PAFC system was built on the platform of an Olympus BX51 microscope (Olympus America, Inc.) and a tunable optical parametric oscillator (OPO) pumped by an Nd:YAG laser (Lotis Ltd., Minsk, Belarus). […] Laser energy was directed to the blood vessels using a conventional lens, or an optical fiber. PA waves emitted by the cells were detected by ultrasound transducers (unfocused Panametrics model XMS-310, 10 MHz; focused cylindrical Panametrics model V312-SM, 10 MHz, focused lengths of 6 mm, 12 mm, and 55 mm; and customized resonance transducers), and the ultrasound transducer outputs were conditioned by an amplifier (Panametrics model 5662, bandwidth 50 kHz-5 MHz; Panametrics model 5678, bandwidth 50 kHz-40 MHz; customized amplifiers with adjustable high and low frequency boundaries in the range to 50-200 KHz and 1-20 MHz, respectively; resonance bandwidth of 0.3-1.0 MHz). The amplifier output signals were recorded with a Boxcar data acquisition system (Stanford Research Systems, Inc.) and a Tektronix TDS 3032B oscilloscope, and were analyzed using standard and customized software. […] The signals from the oscilloscope screen were recorded with a digital camera (Sony, Inc.) and video camera (JVC, Inc.). […]

`CC1(C)C(/C=C/C=C/C=C/C=C2\N(CCCCS(=O)(=O)O)c3ccc4ccccc4c3C2(C)C)=[N+](CCCCS(=O)(=O)[O-])c2ccc3ccccc3c21` [ICG, Indocyanine Green]: in data set [1], the “toxicity after labeling (trypan blue exclusion)” value is given as “No toxicity was observed”. Take `CCN(CC)c1ccc(C(=C2C=CC(=[N+](CC)CC)C=C2)c2cc(S(=O)(=O)[O-])ccc2S(=O)(=O)[O-])cc1.[Na+]` [Lymphazurin, Isosulfan Blue]: in data set [2], the “clearance of Lymphazurin from the blood” value is 50 min.
